Here are results for seven compounds from patent US7811797B2, “α-isomaltosylglucosaccharide-forming enzyme, process and uses of the same” (Kabushiki Kaisha Hayashibara Seibutsu Kagaku Kenkyujo, priority 2000, dated 2010).

Like-named read-outs stand apart in the source and are kept apart here.

Test [1] has as its system α-isomaltosyl-transferring enzyme. Format: biochemical, Bacillus globisporus C11. The method, then:
(§1) The α-isomaltosyl-transferring enzyme was assayed for enzymatic activity by dissolving panose in 100 mM acetate buffer (pH 6.0) to give a concentration of 2% (w/v) for a substrate solution, adding a 0.5 ml of an enzyme solution to 0.5 ml of the substrate solution, enzymatically reacting the mixture solution at 35° C. for 30 min, suspending the reaction mixture by boiling for 10 min, and quantifying glucose, among the cyclotetrasaccharide and glucose formed in the reaction mixture, by the glucose oxidase method. One unit activity of the α-isomaltosyl-transferring enzyme is defined as the enzyme amount that forms one micromole of glucose per minute under the above enzymatic reaction conditions. Throughout the specification, the enzymatic activity of the α-isomaltosyl-transferring enzyme means the unit(s) assayed as above.
(§2) The influence of metal ions on the activity of α-isomaltosyl-transferring enzyme was examined in the presence of 1 mM of each metal-ion according to the assay for the enzyme activity.

Test [2] has as its system α-isomaltosylglucosaccharide-forming enzyme. Kind of test: Influence of metal ions on the activity of α-isomaltosylglucosaccharide-forming enzyme (Strain A19). Format: biochemical, Arthrobacter globiformis A19. The settings on record: for Relative activity (%): 1 mM of each metal-ion; for influence on the enzyme activity, in words: 1 mM.
The test system is the same in test [3]. Kind of test: Influence of metal ions on the activity of α-isomaltosylglucosaccharide-forming enzyme (Strain C9). In kind it is biochemical, Bacillus globisporus C9. The note with it: for Relative activity (%): 1 mM of each metal-ion; for influence on the enzyme activity, in words: 1 mM. As to the method:
(§3) One unit activity of the α-isomaltosylglucosaccharide-forming enzyme is defined as the enzyme amount that forms one micromole of maltose per minute under the above enzymatic reaction conditions. Throughout the specification, the enzymatic activity of the α-isomaltosylglucosaccharide-forming enzyme means the unit(s) assayed as above.
(§4) The influence of metal ions on the activity of α-isomaltosylglucosaccharide-forming enzyme was examined in the presence of 1 mM of each metal-ion according to the assay for the enzyme activity.

Test [4] deals with α-isomaltosyl-transferring enzyme. Kind of test: Influence of metal ions on the activity of α-isomaltosyl-transferring enzyme (Strain C9). In kind it is biochemical, Bacillus globisporus C9. The note with it: for influence on the enzyme activity, in words: 1 mM; for Relative activity (%): 1 mM of each metal-ion. The method, then:
as §1, with “above. […]” for “above.”

Test [5] shares this test system. The test is described as follows: Influence of metal ions on the activity of α-isomaltosyl-transferring enzyme (Strain S1). In kind it is biochemical, Arthrobacter ramosus S1. The note with it: for Relative activity (%): 1 mM of each metal-ion. As to the method: as §1, §2
The test system is the same in test [6]. Kind of test: Influence of metal ions on the activity of α-isomaltosyl-transferring enzyme (Strain N75). In kind it is biochemical, Bacillus globisporus N75. The settings on record: for influence on the enzyme activity, in words: 1 mM; for Relative activity (%): 1 mM of each metal-ion. As to the method:
as §1, §2

For test [7], the system named is α-isomaltosylglucosaccharide-forming enzyme. The test is described as follows: Influence of metal ions on the activity of α-isomaltosylglucosaccharide-forming enzyme (Strain C11). Format: biochemical, Bacillus globisporus C11. The settings on record: for influence on the enzyme activity, in words: 1 mM; for Relative activity (%): 1 mM of each metal-ion. The method, then:
as §3
The influence of metal ions on the activity of α-isomaltosylglucosaccharide forming enzyme was examined in the presence of 1 mM of each metal-ion according to the assay for the enzyme activity.

The test system is the same in test [8]. Kind of test: Influence of metal ions on the activity of α-isomaltosylglucosaccharide-forming enzyme (Strain N75). In kind it is biochemical, Bacillus globisporus N75. The note with it: for influence on the enzyme activity, in words: 1 mM; for Relative activity (%): 1 mM of each metal-ion. As to the method:
as §3, §4

Take `[Ca+2]` [Ca^2+]: the “Relative activity (%)” value in test [1] (1 mM of each metal-ion) is given as 91%; in test [2], 106%; in test [3] it was 115%; in test [4] it was 101%; in test [5] it was 103%; in test [6] it was 100%. The “Relative activity (%)” value in test [7] turned out to be 109%; in test [8], 108%. Moreover, the “influence on the enzyme activity, in words” value (“influence” below) in test [4] is recorded as “not activated”; in test [6], “not activated”; in test [7], “activated”; in test [8], “activated”.

Consider `[Co+2]` [Co^2+], for which the “Relative activity (%)” value in test [1] (1 mM of each metal-ion) is 89%; in test [2] it was 93%; in test [3], 100%; in test [4] it was 103%; in test [5] it was 91%; in test [6], 92%. The results for the “Relative activity (%)” value in test [7] and in test [8] were 96% and 93%, respectively.

Take `[Hg+2]` [Hg^2+]: the “influence” value in test [1] (1 mM), in test [2], in test [3], in test [4], in test [5] (1 mM) and in test [6] was “greatly inhibited” each time. In addition, the “influence” value in test [7] and in test [8] was “greatly inhibited” each time. Besides, the “Relative activity (%)” value in test [1] (1 mM of each metal-ion) stood at 2%; in test [2] it was 0%; in test [3] it was 4%; in test [4] it was 1%; in test [5], 0.1%; in test [6], 0.5%. For the same compound, the “Relative activity (%)” value is listed as 4% in test [7] and 1% in test [8].

`[Zn+2]` [Zn^2+]: the “Relative activity (%)” value was 83% in test [1] (1 mM of each metal-ion); 56% in test [2]; 92% in test [3]; 88% in test [4]; 78% in test [5]; 75% in test [6]. Moreover, the “Relative activity (%)” value in test [7] is 91%; in test [8], 82%.

With `[Ba+2]` [Ba^2+], the “Relative activity (%)” value is 90% in test [1] (1 mM of each metal-ion); 99% in test [2]; 65% in test [3]; 102% in test [4]; 97% in test [5]; 102% in test [6]. The figures for the “Relative activity (%)” value in test [7] and in test [8] were 65% and 84%, respectively. Besides, the “influence” value in test [3] and in test [7] was “also inhibited” each time.

Take `[Sr+2]` [Sr^2+]: the “Relative activity (%)” value in test [1] (1 mM of each metal-ion) is recorded as 93%; in test [2], 102%; in test [3] it was 80%; in test [4] it was 101%; in test [5], 101%; in test [6] it was 91%. The “Relative activity (%)” value in test [7] was determined as 83%; in test [8], 85%. Moreover, in test [7], the “influence” value is “also inhibited”.

Regarding `O=C(O)CN(CCN(CC(=O)O)CC(=O)O)CC(=O)O` [EDTA, ethylenediaminetetraacetic acid, reference compound], the “Relative activity (%)” value in test [1] was determined as 98%; in test [2] it was 2%; in test [3], 20%; in test [4] it was 104%; in test [5], 91%; in test [6], 92%. Besides, the “Relative activity (%)” value amounted to 24% in test [7] and 35% in test [8]. Also, the “influence” value in test [1] is “not inhibited”; in test [2] it was “greatly inhibited”; in test [4], “not inhibited”; in test [6] it was “not inhibited”; in test [7], “greatly inhibited”; in test [8], “greatly inhibited”.
